Results on 3 compounds are retold here after US20260008776A1 (HANGZHOU POLYMED BIOPHARMACEUTICALS, INC., priority 2023, published 2026).

Like-named read-outs stand apart in the source and are kept apart here.

Data set [1] is described as follows: High-pressure property test. The data set is classed as physicochemical. The conditions noted are these: hydraulic pressure 10 tons, 5 minutes. An excerpt: The resulting solid was characterized by XRPD and other methods to evaluate its crystal form stability under high-pressure conditions.
The nature of data set [2]: Solid-state stability study, influencing factor test of crystal form A. The data set is classed as physicochemical. Here is the method:
The glass dish or glass vial was then subjected to different environments in a constant temperature and humidity chamber. The conditions include: illumination: 4500±500 Lux; high temperature: 60° C. (sealed); and high humidity: 25° C. with relative humidity RH=90±5% (open).

A short description of data set [3]: Hygroscopicity study of crystal form A by dynamic vapor sorption (DVS). The conditions noted are these: for Desorption (%) / Sorption (%): DVS. The data set is classed as physicochemical. On the procedure: The important hygroscopicity of this compound was tested using a dynamic vapor sorption (DVS) instrument. DVS is a dynamic measurement method, so during the measurement process, the sample will undergo a change in mass. Like other types of research methods, DVS records the change in mass of the sample as the relative humidity changes.

Data set [4] in a line: Simulated granulation test (dry and wet grinding). The data set is classed as physicochemical. The conditions noted are these: dry grinding 30 minutes; wet grinding with ethanol 30 minutes. An excerpt:
The purpose was to determine whether polymorphs, solvates, or amorphous forms were readily generated.

The nature of data set [5]: Crystal form transformation, suspension competition experiments. The data set is classed as physicochemical. The conditions noted are these: C, D, E, RT; for XRPD of solid after suspension competition: crystal forms A, G together (20 mg each), EtOH/H2O 1/1 (v/v); for XRPD: suspension competition of crystal forms A, G (20 mg each), DMSO/EtOH 1/8 (v/v) saturated solution 15 V. On the procedure:
In order to study the transformation relationship between various crystal forms and prepare various crystal forms under repeated conditions, a series of suspension competition experiments were carried out on crystal forms A, C, D, E, and G in different solvent systems. The specific experimental steps are as follows:
20 mg of each of crystal forms A, C, D, E, and G were weighed into 5 mL glass vials, and solvents (EtOH/H2O=1/1 (v/v) or DMSO (dimethyl sulfoxide)/EtOH=1/8 (v/v)) were added to form suspensions. The vials were then transferred to 25° C. and stirred for 72 hours. At various time points, the filter cakes were tested by XRPD.

The subject of the next data set is MV4-11 cells. The data set can be described thus: Killing activity against MV4-11 cells (CellTiter-Glo, CTG). The conditions noted are these: Homo sapiens, 72 hours incubation, read-out: IC50 of cell killing activity against MV4-11. The data set is classed as cell-based. An excerpt:
Reagent and consumable information is as follows: • MV4-11 Cells (ATCC, Cat. No. CRL-9591) • DPBS (Dulbecco's Phosphate Buffered Saline, Biosera, Cat. No. LM-S2041/500) • IMDM Medium (Thermo, Cat. No. 12440053) • Fetal Bovine Serum (Biological, Cat. No. 04-002-1A) • Penicillin-Streptomycin Solution (Invitrogen, Cat. No. 15140122) • Dimethyl Sulfoxide (Sigma, Cat. No. D2650) • CellTiter-Glo Luminescent Cell Viability Assay (Promega, Cat. No. G7573) • 96-Well Plate (Corning, Cat. No. 3903)
1. MV-4-11 cells were cultured in a complete IMDM medium (IMDM+10% fetal bovine serum+1% Penicillin-Streptomycin, a mixture of penicillin and streptomycin).
2. MV-4-11 cells with good cell status were collected and washed twice with DPBS (Dulbecco's phosphate buffered saline).
3. MV-4-11 cells were resuspended in a complete IMDM medium, adjusted to a cell density of 1.11×10^6 cells/mL, and 90 μL of the mixture was added to each well of a 96-well plate.
4. A 10-fold concentration of the compound solution was prepared in a complete IMDM medium, and 10 μL of the 10-fold concentration of the compound solution was added to each well of the 96-well plate. After mixing well, the 96-well plate was incubated in a 37° C., 5% CO2 incubator for 72 hours.
5. […]
6. The 96-well plate was removed and equilibrated at room temperature for 10 minutes, and then the chemiluminescence value was measured using a microplate reader.

Data set [6] can be described thus: Pharmacokinetic test in rats, oral gavage. The data set is classed as in vivo, Sprague-Dawley rats. Here is the method:
Subsequently, 976 μL of Tween 80 was added and vortexed for 30 seconds, followed by the addition of 488 μL of Kolliphor HS15 (Kolliphor HS15 was used after heating and melting at 50° C.) and vortexed for 30 seconds. Finally, […] of saline was added and vortexed for 30 seconds, followed by ultrasonication for 10 seconds to remove bubbles. The resulting administration preparation was a suspension.
Subsequently, 1034 μL of Tween 80 was added and vortexed for 30 seconds, followed by the addition of 517 μL of Kolliphor HS15 (Kolliphor HS15 was used after heating and melting at 50° C.) and vortexed for 30 seconds. Finally, 8270 μL of saline was added and vortexed for 30 seconds, followed by ultrasonication for 10 seconds to remove bubbles. The resulting administration preparation was a suspension.
Species and Strain: Sprague-Dawley rats (SD rats) (Zhejiang Vital River Laboratory Animal Technology Co., Ltd.) • Animal Grade: SPF level
Planned initial body weight for administration: Male 200-250 g. Actual animal weights will be listed in the raw records. • Number and Gender of Animals: 3 (3 per group), male
Based on measured body weights, animals with similar weights were divided into groups of 3 animals each. Blank group animals were used for the collection of blank biological matrices.
• Administration route: Oral gavage • Administration volume: 10 mL/kg • Administration frequency: Single dose • Administration method: The test sample was administered orally via gavage using an appropriate syringe and gavage tube. When using a 2 mL or 5 mL syringe, the administration volume was recorded to one decimal place. When the minimum graduation value of the syringe was 0.2 mL and the administration volume was between two graduation marks, the higher volume was selected for administration.
Sample collection: Approximately 0.30 mL of whole blood was collected from the orbital vein of Group 1 animals at each time point.
The experimental animals were fasted for 12 hours before administration, with free access to water. Blood samples were collected from Group 1 animals (oral gavage group) at 5 min, 15 min, 30 min, 1 h, 2 h, 4 h, 6 h, 8 h, and 24 h after administration.
Sample processing: The collected venous blood was immediately transferred to EDTA-Na2-coated EP tubes (stored in a refrigerator or in an ice box with crushed ice at 2-8° C. prior to use), inverted at least 5 times for thorough mixing, and temporarily stored in an ice box with crushed ice. The collected whole blood was centrifuged at 2000 g for 10 min under 2-8° C. conditions within 2 h to separate plasma, which was then placed in newly labeled centrifuge tubes and stored at −20° C.
The pharmacokinetics group of the Department of Pharmacology and Toxicology conducted the analysis and measurement of all samples, followed by data summarization. Plasma concentration data were analyzed using the pharmacokinetic data analysis software WinNonlin. Non-compartmental analysis (NCA) was employed to calculate pharmacokinetic parameters such as t1/2, Cmax, Tmax, Vd, CL, AUC0-24, and F. The detailed results are shown in the following table: […]

The mark [7] stands for this setting: rats, PO, 40 mpk, single dose, plasma.

Regarding `CC(C)(O)CCn1cc2cc(NC(=O)c3coc(-c4ccnc(C(F)(F)F)c4)n3)c(C(C)(C)O)cc2n1` [crystal form A], in data set [1], the “Crystal form after high-pressure treatment (XRPD)” value is reported as “has not changed”. The Purity in data set [2] (High Relative Humidity (RH = 90 ± 5%, Open, 25° C.), 5 Days) stood at 99.60%; in data set [2] (High Relative Humidity (RH = 90 ± 5%, Open, 25° C.), 11 Days), 99.56%; in data set [2] (High Temperature (60° C., Sealed), 5 Days) it was 99.26%; in data set [2] (High Temperature (60° C., Sealed), 11 Days), 99.67%; in data set [2] (Strong Illumination (Open), 5 Days), 99.67%; in data set [2] (Strong Illumination (Open), 11 Days), 99.44%. The Purity in data set [2] (initial, before stress) stood at 99.70%. Moreover, the Solid-state stability evaluation result in data set [2] (illumination 4500±500 Lux, 60° C. sealed, 25° C. RH=90±5% open) is “good physical and chemical properties”. The “Change in crystal form before and after DVS testing (XRPD)” value in data set [3] is recorded as “no change in crystal form”. Also, the “Hygroscopicity (DVS), in words” value in data set [3] (25° C., up to 90 RH) is given as “low hygroscopicity”. Besides, in data set [3] (25° C./90 RH, two sorption-desorption curves), the “Moisture sorption (DVS)” value is given as “less than 0.0400”. Also, the “Desorption (%)” value in data set [3] (first cycle, 0% RH) was −0.01%; in data set [3] (first cycle, 10% RH) it was 0.00%; in data set [3] (first cycle, 20% RH), 0.00%; in data set [3] (first cycle, 30% RH), 0.00%; in data set [3] (first cycle, 40% RH) it was 0.01%; in data set [3] (first cycle, 50% RH) it was 0.02%. The “Desorption (%)” value in data set [3] (first cycle, 60% RH) is given as 0.02%; in data set [3] (first cycle, 70% RH) it was 0.03%; in data set [3] (first cycle, 80% RH), 0.03%; in data set [3] (first cycle, 90% RH), 0.03%; in data set [3] (second cycle, 0% RH), −0.01%; in data set [3] (second cycle, 10% RH), −0.01%. In addition, the “Desorption (%)” value in data set [3] (second cycle, 20% RH) was 0.00%; in data set [3] (second cycle, 30% RH), 0.00%; in data set [3] (second cycle, 40% RH), 0.01%; in data set [3] (second cycle, 50% RH), 0.01%; in data set [3] (second cycle, 60% RH) it was 0.02%; in data set [3] (second cycle, 70% RH), 0.03%. Besides, the “Desorption (%)” value in data set [3] (second cycle, 80% RH) stood at 0.03%; in data set [3] (second cycle, 90% RH) it was 0.03%. Moreover, the “Sorption (%)” value in data set [3] (first cycle, 0% RH) is reported as 0.00%; in data set [3] (first cycle, 10% RH), −0.01%; in data set [3] (first cycle, 20% RH), 0.00%; in data set [3] (first cycle, 30% RH) it was 0.00%; in data set [3] (first cycle, 40% RH), 0.00%; in data set [3] (first cycle, 50% RH), 0.01%. The “Sorption (%)” value in data set [3] (first cycle, 60% RH) was 0.01%; in data set [3] (first cycle, 70% RH) it was 0.02%; in data set [3] (first cycle, 80% RH) it was 0.03%; in data set [3] (first cycle, 90% RH), 0.03%; in data set [3] (second cycle, 0% RH) it was −0.01%; in data set [3] (second cycle, 10% RH) it was −0.01%. Also, the “Sorption (%)” value is reported as −0.01% in data set [3] (second cycle, 20% RH); −0.01% in data set [3] (second cycle, 30% RH); 0.00% in data set [3] (second cycle, 40% RH); 0.01% in data set [3] (second cycle, 50% RH); 0.01% in data set [3] (second cycle, 60% RH); 0.02% in data set [3] (second cycle, 70% RH). Besides, the “Sorption (%)” value stood at 0.02% in data set [3] (second cycle, 80% RH) and 0.03% in data set [3] (second cycle, 90% RH). Also, the “Moisture Sorption” value in data set [3] (at 90% RH, DVS 25° C.) is reported as “Moisture Sorption of 0.03% at 90% RH”. Moreover, in data set [4], the “Crystal form after simulated granulation (XRPD, DSC)” value was “have not changed”. Besides, the “XRPD of solid after suspension competition” value in data set [5] (24 hours), in data set [5] (48 hours) and in data set [5] (72 hours) was “Crystal Form C” each time. In addition, the XRPD result in data set [5] (24 hours), in data set [5] (48 hours) and in data set [5] (72 hours) was “Crystal Form A” each time.
With `CC(C)(O)CCn1cc2cc(NC(=O)c3coc(-c4ccnc(C(F)(F)F)c4)n3)c(C(C)(C)O)cc2n1` [formula I], the IC50 in the data set on MV4-11 cells was 21 nM. In addition, the AUC(0-t) in data set [6] (male, Sprague-Dawley, rat, 40 mg/kg, rats, PO, 40 mpk, single dose, plasma, read-out: AUC0-24) came to 4880 ng·h/mL. Moreover, the Cmax in data set [6] (male, Sprague-Dawley, rat, 40 mg/kg, rats, PO, 40 mpk, single dose, plasma, read-out: Cmax) amounted to 934 ng/mL.
Take `CC(C)(O)CCn1cc2cc(NC(=O)c3coc(-c4ccnc(C(F)(F)F)c4)n3)c(C(C)(C)O)cc2n1.Cl` [hydrochloride salt]: the “Plasma concentration and exposure compared with the free base” value in data set [6] (SD rats, single oral gavage, 4 mg/mL suspension, 10 mL/kg) is reported as “significantly increase”. In data set [6] (setting [7]), this compound gave an AUC0-24 of 27508.69 ng·h/mL and a Cmax of 5117.67 ng/mL.

A word on the IC50: it is the concentration that gives 50% inhibition. As usually defined, the Cmax is the highest concentration seen after dosing.
